Experimental data reported in patent US9718825B2, “N-(4-(azaindazol-6-yl)-phenyl)-sulfonamides and their use as pharmaceuticals” (priority 2013, dated 2017).

Tests used:
[1] = molecular target: recombinant human SGK-1 enzyme (Homo sapiens, UniProt O00141); experiment: Enzymatic activity assay: SGK-1 substrate peptide phosphorylation (Caliper lab-chip mobility shift); type: biochemical; settings: peptide substrate 1 μM, ATP 10 μM, 60 min at 37° C., read-out: IC50 values for inhibition of SGK-1 enzymatic activity
Procedure: In one of the cellular assays, the SGK-1 dependent phosphorylation of glycogen synthase kinase 3beta (GSK3beta) in U2OS cells was measured, in another one, a functional electrophysiological assay, the SGK-1 dependent activation of epithelial Na^+ channel (ENaC) currents in A6 cell monolayers, and in another one chondrocyte hypertrophic differentiation in mouse chondrogenic ATDC5 cells.
A) Enzymatic Activity Assay
For the determination of the compound dose response, a 10 mM DMSO stock solution was diluted and tested in a ten-point, three-fold dilution series run in duplicate beginning at 30 μM final concentration. Data were analyzed using a four-parameter curve fit with a fixed minimum and maximum experimentally defined as the average positive and negative controls on each plate.

[2] = system: SGK-1 dependent phosphorylation of GSK3beta in U2OS cells; experiment: SGK-1 dependent phosphorylation of GSK3beta in U2OS cells overexpressing recombinant SGK-1 and GSK3beta; type: cell-based, human; settings: U2OS cells, 6 h incubation, ratio of phosphorylated GSK3beta to total GSK3beta; read-out: IC50 values for inhibition of SGK-1 dependent phosphorylation of GSK3beta in U2OS cells
Procedure: B) Determination of the Effect on SGK-1 Dependent Phosphorylation of GSK3beta in U2OS Cells
U2OS cells were cultured in 1:1 Dulbecco modified Eagle medium/Ham's F12 and 10% heat-inactivated fetal calf serum (FCS Gold) at 37° C., 7% CO2 and 95% relative humidity. […] Cell suspension mixed with BacMam viruses was seeded in 96 well pCLEAR plates (Greiner) at 3×10^4 cells per well in 250 μl medium. […] 1 μl of a solution of the test compound at 250×final concentration was added. Cells are incubated at 37° C., 7% CO2 and 95% relative humidity. […] After removing the fixation solution, cells were permeabilised by adding 200 μl PBT (0.2% Triton X-100 in PBS) per well for 5 min. After removing PBT, cells were blocked by adding 200 μl of blocking solution (1% bovine serum albumine in PBS) per well. Blocking solution was removed and 50 μl of primary antibody (rabbit anti-phospho-GSK-3beta (Ser9), and mouse anti-GSK-3beta) were added for 1 h. […] After washing the cells 3 times with PBS, 200 μl of PBS were added. Fluorescence signals were measured with the ImageXpress MICRO (Molecular Devices).

recombinant human SGK-1 enzyme, sequence (O00141 whole entry, looked up): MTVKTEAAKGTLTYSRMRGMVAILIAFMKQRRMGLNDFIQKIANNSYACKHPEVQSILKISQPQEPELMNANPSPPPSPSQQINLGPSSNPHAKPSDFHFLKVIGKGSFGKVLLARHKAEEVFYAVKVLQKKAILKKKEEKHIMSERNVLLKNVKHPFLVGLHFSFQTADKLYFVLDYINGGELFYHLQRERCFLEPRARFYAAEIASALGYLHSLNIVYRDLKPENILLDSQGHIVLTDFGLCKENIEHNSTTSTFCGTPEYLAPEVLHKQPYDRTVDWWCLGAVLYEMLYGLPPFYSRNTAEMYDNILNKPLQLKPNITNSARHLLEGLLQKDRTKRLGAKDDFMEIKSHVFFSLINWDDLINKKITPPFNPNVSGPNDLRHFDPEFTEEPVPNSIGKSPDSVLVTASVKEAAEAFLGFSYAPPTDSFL

Structure (SMILES)	IC50 [1]	IC50 [2]
Cc1ccc(C#N)c(S(=O)(=O)Nc2ccc(-c3nc(C4CCC(O)C4)c4c(C)n[nH]c4n3)cc2)c1 (stereo not shown) [Example 97]	2 nM	1600 nM
Cc1ccc(C#N)c(S(=O)(=O)Nc2ccc(-c3nc(NC4CCC(O)CC4)c4c(C)n[nH]c4n3)cc2)c1 (stereo not shown) [Example 98]	1.7 nM	1700 nM
Cc1ccc(F)c(S(=O)(=O)Nc2ccc(-c3nc(OC4CCC(O)CC4)c4c(C)n[nH]c4n3)cc2)c1 (stereo not shown) [Example 101]	2.1 nM	430 nM
COc1ccc(Cl)c(S(=O)(=O)Nc2ccc(-c3nc(OC4CCC(O)CC4)c4c(C)n[nH]c4n3)cc2)c1 (stereo not shown) [Example 102]	1.7 nM	380 nM
Cc1n[nH]c2nc(-c3ccc(NS(=O)(=O)c4cc5c(cc4Cl)OCCO5)cc3)ncc12 [Example 103]	2.3 nM	9100 nM
Cc1ccc(F)c(S(=O)(=O)Nc2ccc(-c3nc(OCC4CNC(=O)C4)c4cn[nH]c4n3)cc2)c1 (stereo not shown) [Example 107]	2.5 nM	3700 nM
Cc1ccc(F)c(S(=O)(=O)Nc2ccc(-c3nc(N4CC(CO)C4)c4cn[nH]c4n3)cc2)c1 [Example 109]	16 nM	4600 nM
COc1ccc(Cl)c(S(=O)(=O)Nc2ccc(-c3nc(N4CC(CO)C4)c4cn[nH]c4n3)cc2)c1 [Example 110]	14 nM	5100 nM
Cc1ccc(F)c(S(=O)(=O)Nc2ccc(-c3nc(OCCCC(N)=O)c4cn[nH]c4n3)cc2)c1 [Example 112]	3.3 nM	3900 nM
COc1ccc(Cl)c(S(=O)(=O)Nc2ccc(-c3nc(OCCCC(N)=O)c4cn[nH]c4n3)cc2)c1 [Example 113]	3 nM	3600 nM
Cc1ccc(F)c(S(=O)(=O)Nc2ccc(-c3nc(OCCC(N)=O)c4cn[nH]c4n3)cc2)c1 [Example 116]	< 1.5 nM	4800 nM
COc1ccc(Cl)c(S(=O)(=O)Nc2ccc(-c3nc(OCCC(N)=O)c4cn[nH]c4n3)cc2)c1 [Example 117]	2.3 nM	6800 nM
Cc1ccc(F)c(S(=O)(=O)Nc2ccc(-c3nc(OC4C[C@@H](O)C[C@@H](O)C4)c4cn[nH]c4n3)cc2)c1 (stereo partly shown) [Example 119]	< 1.5 nM	11000 nM
Cc1ccc(F)c(S(=O)(=O)Nc2ccc(-c3nc(OCC4O[C@H](O)[C@H](O)[C@@H](O)[C@@H]4O)c4cn[nH]c4n3)cc2)c1 (stereo partly shown) [Example 123]	9.9 nM	30000 nM
Cc1ccc(C#N)c(S(=O)(=O)Nc2ccc(-c3nc(OCC4CNC(=O)C4)c4cn[nH]c4n3)cc2)c1 (stereo not shown) [Example 125]	2 nM	12000 nM
Cc1n[nH]c2nc(-c3ccc(NS(=O)(=O)c4cc(C#N)ccc4F)cc3)nc(OC3CCC(O)CC3)c12 (stereo not shown) [Example 128]	2.7 nM	3600 nM
COc1ccc(F)c(S(=O)(=O)Nc2ccc(-c3nc(OC4CCC(O)CC4)c4c(C)n[nH]c4n3)cc2)c1 (stereo not shown) [Example 129]	< 1.5 nM	170 nM
Cc1n[nH]c2nc(-c3ccc(NS(=O)(=O)c4cc(F)ccc4C#N)cc3)nc(OC3CCC(O)CC3)c12 (stereo not shown) [Example 131]	4.9 nM	2600 nM
COc1ccc(F)c(S(=O)(=O)Nc2ccc(-c3nc(OC4CCC(O)CC4)c4cn[nH]c4n3)cc2)c1 (stereo not shown) [Example 133]	< 1.5 nM	260 nM
COc1ccc(C#N)c(S(=O)(=O)Nc2ccc(-c3nc(OC4CCC(O)CC4)c4cn[nH]c4n3)cc2)c1 (stereo not shown) [Example 134]	< 1.5 nM	640 nM
COc1nc(-c2ccc(NS(=O)(=O)c3cc(C)ccc3C#N)cc2)nc2[nH]ncc12 [Example 135]	12 nM	1900 nM
COc1nc(-c2ccc(NS(=O)(=O)c3cc(Cl)ccc3F)cc2)nc2[nH]ncc12 [Example 136]	41 nM	1700 nM
COc1nc(-c2ccc(NS(=O)(=O)c3cc(Cl)ccc3C#N)cc2)nc2[nH]ncc12 [Example 138]	44 nM	3500 nM
COc1nc(-c2ccc(NS(=O)(=O)c3cc(Cl)ccc3Cl)cc2)nc2[nH]ncc12 [Example 139]	82 nM	5500 nM
O=S(=O)(Nc1ccc(-c2nc(C3CC3)c3cn[nH]c3n2)cc1)c1cc(Cl)ccc1F [Example 141]	6.5 nM	150 nM
COc1ccc(Cl)c(S(=O)(=O)Nc2ccc(-c3nc(OC)c4cn[nH]c4n3)cc2)c1 [Example 143]	10 nM	100 nM
COc1ccc(F)c(S(=O)(=O)Nc2ccc(-c3nc(OC)c4cn[nH]c4n3)cc2)c1 [Example 144]	3.5 nM	55 nM

Structure (SMILES)	IC50 [1]	IC50 [2]
Cc1ccc(C#N)c(S(=O)(=O)Nc2ccc(-c3nc(C4CC4)c4cn[nH]c4n3)cc2)c1 [Example 145]	4.1 nM	350 nM
Cc1ccc(C#N)c(S(=O)(=O)Nc2ccc(-c3nc(CCCCl)c4cn[nH]c4n3)cc2)c1 [Example 146]	47 nM	11000 nM
COc1ccc(F)c(S(=O)(=O)Nc2ccc(-c3nc(C4CC4)c4cn[nH]c4n3)cc2)c1 [Example 147]	1.5 nM	59 nM
Cc1nc(-c2ccc(NS(=O)(=O)c3ccc(F)cc3Cl)cc2)nc2[nH]nc(N)c12 [Example 164]	40 nM	600 nM
Cc1nc(-c2ccc(NS(=O)(=O)c3cc(F)c(F)c(F)c3)cc2)nc2[nH]nc(N)c12 [Example 165]	110 nM	970 nM
Cc1nc(-c2ccc(NS(=O)(=O)c3ccccc3F)cc2)nc2[nH]nc(N)c12 [Example 169]	110 nM	250 nM
Cc1nc(-c2ccc(NS(=O)(=O)c3cc(F)c(F)cc3Cl)cc2)nc2[nH]nc(N)c12 [Example 170]	54 nM	510 nM
Cc1nc(-c2ccc(NS(=O)(=O)c3cccc(Cl)c3F)cc2)nc2[nH]nc(N)c12 [Example 171]	40 nM	870 nM
Cc1nc(-c2ccc(NS(=O)(=O)C3=CSCC=C3Br)cc2)nc2[nH]nc(N)c12 [Example 173]	330 nM	600 nM
Cc1nc(-c2ccc(NS(=O)(=O)C3=C(Cl)SCC(Cl)=C3)cc2)nc2[nH]nc(N)c12 [Example 175]	19 nM	520 nM
COc1nc(-c2ccc(NS(=O)(=O)c3cc(Cl)cc(F)c3F)cc2)nc2[nH]ncc12 [Example 178]	350 nM	800 nM
Cc1ccc(C#N)c(S(=O)(=O)Nc2ccc(-c3nc(OC4CNC4)c4cn[nH]c4n3)cc2)c1 [Example 188]	3.4 nM	900 nM
O=S(=O)(Nc1ccc(-c2nc(OC3CNC3)c3cn[nH]c3n2)cc1)c1cc(Cl)ccc1Cl [Example 190]	4.7 nM	120 nM
N#Cc1ccc(Cl)cc1S(=O)(=O)Nc1ccc(-c2nc(OC3CNC3)c3cn[nH]c3n2)cc1 [Example 191]	21 nM	2700 nM
COc1ccc(F)c(S(=O)(=O)Nc2ccc(-c3nc(OC4CNC4)c4cn[nH]c4n3)cc2)c1 [Example 192]	2.8 nM	140 nM
Cc1ccc(C#N)c(S(=O)(=O)Nc2ccc(-c3nc(OCC(F)(F)F)c4c(N)n[nH]c4n3)cc2)c1 [Example 193]	2 nM	160 nM
COc1ccc(Cl)c(S(=O)(=O)Nc2ccc(-c3nc(OCC(F)(F)F)c4c(N)n[nH]c4n3)cc2)c1 [Example 194]	2.3 nM	100 nM
Nc1n[nH]c2nc(-c3ccc(NS(=O)(=O)c4cc(Cl)ccc4Cl)cc3)nc(OCC(F)(F)F)c12 [Example 195]	5.4 nM	210 nM
N#Cc1ccc(Cl)cc1S(=O)(=O)Nc1ccc(-c2nc(OCC(F)(F)F)c3c(N)n[nH]c3n2)cc1 [Example 196]	4.6 nM	330 nM
COc1ccc(F)c(S(=O)(=O)Nc2ccc(-c3nc(OCC(F)(F)F)c4c(N)n[nH]c4n3)cc2)c1 [Example 197]	3 nM	65 nM
O=S(=O)(Nc1ccc(-c2nc(OCC3CNC3)c3cn[nH]c3n2)cc1)c1cc(Cl)ccc1F [Example 198]	< 1.5 nM	510 nM
NCCCOc1nc(-c2ccc(NS(=O)(=O)c3cc(F)ccc3F)cc2)nc2[nH]ncc12 [Example 199]	26 nM	640 nM
COc1ccc(Cl)c(S(=O)(=O)Nc2ccc(-c3nc(OCCCN)c4cn[nH]c4n3)cc2)c1 [Example 203]	< 1.5 nM	160 nM
Cc1ccc(F)c(S(=O)(=O)Nc2ccc(-c3nc(OCCCN)c4cn[nH]c4n3)cc2)c1 [Example 204]	< 1.5 nM	130 nM
Cc1ccc(F)c(S(=O)(=O)Nc2ccc(-c3nc(OCCCN)c4c(C)n[nH]c4n3)cc2)c1 [Example 207]	< 1.5 nM	140 nM
Cc1n[nH]c2nc(-c3ccc(NS(=O)(=O)c4cc(Cl)ccc4F)cc3)nc(OCCCN)c12 [Example 209]	< 1.5 nM	100 nM
